From patent US11427604B2 (Mindset Pharma Inc., priority 2020, dated 2022)
Several values for one entry are separate records, joined by “and”; a condition that tells them apart may be missing. Equal values may be shown once. Read-outs that look alike come from different tables or passages of the source.

Assays:
[1] = In vivo pharmacokinetics in male C57BL/6 mice; design: species or system mouse; conditions: for AUC(0-t): read-out: AUC0-tlast; for half-life: read-out: Apparent t1/2 (converted); for MRT inf: read-out: MRT0-inf
Description: Male C57BL/6 mice (25-30 g) and male Sprague-Dawley rats (250-325 g) from Charles River Labs were acclimatized for a minimum of 5 days prior to dosing. Body weights were recorded on the day of dosing.
Animals dosed p.o. were deprived of food overnight and fed ˜2 h following dosing.
Formulations were administered intravenously (i.v.) via the tail vein or orally (p.o.) by gavage with disposable feeding needles.
Serial blood samples were collected via tail snip. Terminal blood samples were collected under isoflurane anesthesia by cardiac puncture.
All blood samples were transferred into K2EDTA tubes on wet ice and centrifuged within 5 min (3200×g for 5 min at 4° C.) to obtain plasma. Plasma was stored at −80° C. until analysis.
Mouse or rat plasma, as applicable.
AB Sciex QTRAP 4000 or 6500 MS/MS system equipped with an LC system with a binary pump, a solvent degasser, a thermostated column compartment and a multiplate autosampler. i. Analysis software: Phoenix® WinNonlin® 8.2 (Pharsight, Certara, Mountainview, Calif.) ii. Analysis methods: non-compartmental analysis, linear up/log down trapezoidal rule iii. PK parameters: C0, t1/2, AUC0-tlast, AUC0-∞, CL, VSS, MRT, tmax(po), Cmax(po), F, as appropriate

C57BL/6J mice = assay: Mouse head twitch response (HTR); assay type: in vivo; conditions: for Head Twitch 10 mins, AVG / Head Twitch 20 mins, AVG / Head Twitch 30 mins, AVG / Head Twitch 40 mins, AVG / Head Twitch 50 mins, AVG / Head Twitch 60 mins, AVG / Head Twitch Total, AVG: group mean; for Head Twitch Total, AVG: over 1 h
Description: Data is expressed as mean±SEM. The induction of head twitches elicited by 5-HT2A receptor agonists is believed to represent a behavioural proxy of their psychedelic effects.
The effect of different doses of exemplary compounds of Formula I were evaluated on head-twitch response (HTR) as a behavior-based model of psychedelic activity.
Male, C57BL/6J mice (body weight range 20-30 g) were dosed with the appropriate dose of test article, and following a 1-minute pre-treatment time, placed in individual observation chambers. Animals were visually assessed for the incidence head twitches continuously over a 1 hr period. Head twitches were defined as a rapid jerk of the head which was not elicited by an external tactile stimulus (Corne and Pickering, Psychopharmacologia, 1967, 11(1): 65-78). Each head twitch was individually counted by a trained observer, and the data expressed as the mean+SEM of 6-10 mice per group. Mice were used in a single experiment only.

[2] = mouse, plasma, iv, i.v. 1 mg/kg
[3] = mouse, plasma, po, p.o. 10 mg/kg

[2H]C([2H])([2H])N(C([2H])([2H])[2H])C([2H])([2H])C([2H])([2H])c1c[nH]c2cccc(O)c12 [Compound I-45, 3-(2-(bis(methyl-d3)amino)ethyl-1,1,2,2-d4)-1H-indol-4-ol]
AUC0-inf/Dose ([1]; i.v. 1 mg/kg): 181 ± 30.8 kg·ng·h/mL/mg
AUC(0-inf) [1, 2]: 181 ± 30.8 ng·h/mL
clearance [1, 2]: 94 mL/min/kg
AUC(0-t) [1, 2]: 178 ± 32.2 ng·h/mL
half-life [1, 2]: 5.32 ± 2.99 h
MRT inf [1, 2]: 1.49 ± 0.536 h
Vd ([1]; mouse, plasma, iv, i.v. 1 mg/kg, read-out: Vss): 8.34 ± 3.15 L/kg
AUC(0-inf) [1, 3]: 795 ± 121 ng·h/mL
Cmax [1, 3]: 704 ± 128 ng/mL
bioavailability [1, 3]: 44 ± 6.7%
AUC(0-t) [1, 3]: 792 ± 120 ng·h/mL
half-life [1, 3]: 4.52 ± 0.481 h
MRT inf [1, 3]: 2 ± 0.227 h
AUC0-inf/Dose ([1]; p.o. 10 mg/kg): 79.5 ± 12.1 kg·ng·h/mL/mg
Cmax/Dose ([1]; p.o. 10 mg/kg): 70.4 ± 12.8 kg·ng/mL/mg
Head Twitch 10 mins, individual animal (C57BL/6J mice; 0.03 mg/kg SC, animals C1-C6): 0 (2×) and 1 and 3 and 2 (2×)
Head Twitch 20 mins, individual animal (C57BL/6J mice; 0.03 mg/kg SC, animals C1-C6): 0 (5×) and 1
Head Twitch 30 mins, individual animal (C57BL/6J mice; 0.03 mg/kg SC, animals C1-C6): 0
Head Twitch 40 mins, individual animal (C57BL/6J mice; 0.03 mg/kg SC, animals C1-C6): 0
Head Twitch 50 mins, individual animal (C57BL/6J mice; 0.03 mg/kg SC, animals C1-C6): 0 (5×) and 1
Head Twitch 60 mins, individual animal (C57BL/6J mice; 0.03 mg/kg SC, animals C1-C6): 0
Head Twitch Total, individual animal (C57BL/6J mice; 0.03 mg/kg SC, animals C1-C6, over 1 h): 0 and 1 (2×) and 4 and 2 (2×)
Head Twitch 10 mins, AVG (C57BL/6J mice; 0.03 mg/kg SC): 1.3
Head Twitch 20 mins, AVG (C57BL/6J mice; 0.03 mg/kg SC): 0.2
Head Twitch 30 mins, AVG (C57BL/6J mice; 0.03 mg/kg SC): 0.0
Head Twitch 40 mins, AVG (C57BL/6J mice; 0.03 mg/kg SC): 0.0
Head Twitch 50 mins, AVG (C57BL/6J mice; 0.03 mg/kg SC): 0.2
Head Twitch 60 mins, AVG (C57BL/6J mice; 0.03 mg/kg SC): 0.0
Head Twitch Total, AVG (C57BL/6J mice; 0.03 mg/kg SC): 1.7
Head Twitch 10 mins, individual animal (C57BL/6J mice; 0.1 mg/kg SC, animals P1-P10): 3 and 6 and 0 (3×) and 1 (3×) and 2 (2×)
Head Twitch 20 mins, individual animal (C57BL/6J mice; 0.1 mg/kg SC, animals P1-P10): 1 (4×) and 0 (4×) and 2 (2×)
Head Twitch 30 mins, individual animal (C57BL/6J mice; 0.1 mg/kg SC, animals P1-P10): 0 (6×) and 1 (4×)
Head Twitch 40 mins, individual animal (C57BL/6J mice; 0.1 mg/kg SC, animals P1-P10): 1 (2×) and 0 (8×)
Head Twitch 50 mins, individual animal (C57BL/6J mice; 0.1 mg/kg SC, animals P1-P10): 0 (7×) and 2 and 1 (2×)
Head Twitch 60 mins, individual animal (C57BL/6J mice; 0.1 mg/kg SC, animals P1-P10): 0
Head Twitch Total, individual animal (C57BL/6J mice; 0.1 mg/kg SC, animals P1-P10, over 1 h): 5 and 9 and 3 (3×) and 2 (3×) and 1 and 4
Head Twitch 10 mins, AVG (C57BL/6J mice; 0.1 mg/kg SC): 1.6
Head Twitch 20 mins, AVG (C57BL/6J mice; 0.1 mg/kg SC): 0.8
Head Twitch 30 mins, AVG (C57BL/6J mice; 0.1 mg/kg SC): 0.4
Head Twitch 40 mins, AVG (C57BL/6J mice; 0.1 mg/kg SC): 0.2
Head Twitch 50 mins, AVG (C57BL/6J mice; 0.1 mg/kg SC): 0.4
Head Twitch 60 mins, AVG (C57BL/6J mice; 0.1 mg/kg SC): 0.0
Head Twitch Total, AVG (C57BL/6J mice; 0.1 mg/kg SC): 3.4
Head Twitch 10 mins, individual animal (C57BL/6J mice; 0.3 mg/kg SC, animals Q1-Q10): 3 and 1 (4×) and 0 (2×) and 2 (3×)
Head Twitch 20 mins, individual animal (C57BL/6J mice; 0.3 mg/kg SC, animals Q1-Q10): 0 (4×) and 1 (6×)
Head Twitch 30 mins, individual animal (C57BL/6J mice; 0.3 mg/kg SC, animals Q1-Q10): 1 (3×) and 0 (6×) and 3
Head Twitch 40 mins, individual animal (C57BL/6J mice; 0.3 mg/kg SC, animals Q1-Q10): 0 (8×) and 1 and 2
Head Twitch 50 mins, individual animal (C57BL/6J mice; 0.3 mg/kg SC, animals Q1-Q10): 0 (8×) and 1 (2×)
Head Twitch 60 mins, individual animal (C57BL/6J mice; 0.3 mg/kg SC, animals Q1-Q10): 0
Head Twitch Total, individual animal (C57BL/6J mice; 0.3 mg/kg SC, animals Q1-Q10, over 1 h): 4 (4×) and 2 (2×) and 1 and 3 and 6 and 0
Head Twitch 10 mins, AVG (C57BL/6J mice; 0.3 mg/kg SC): 1.3
Head Twitch 20 mins, AVG (C57BL/6J mice; 0.3 mg/kg SC): 0.6
Head Twitch 30 mins, AVG (C57BL/6J mice; 0.3 mg/kg SC): 0.6
Head Twitch 40 mins, AVG (C57BL/6J mice; 0.3 mg/kg SC): 0.3
Head Twitch 50 mins, AVG (C57BL/6J mice; 0.3 mg/kg SC): 0.2
Head Twitch 60 mins, AVG (C57BL/6J mice; 0.3 mg/kg SC): 0.0
Head Twitch Total, AVG (C57BL/6J mice; 0.3 mg/kg SC): 3.0
Head Twitch 10 mins, individual animal (C57BL/6J mice; 1 mg/kg SC, animals R1-R6): 0 and 4 and 1 and 3 (3×)
Head Twitch 20 mins, individual animal (C57BL/6J mice; 1 mg/kg SC, animals R1-R6): 0 (2×) and 2 and 1 and 7 and 8
Head Twitch 30 mins, individual animal (C57BL/6J mice; 1 mg/kg SC, animals R1-R6): 1 (2×) and 0 (3×) and 3
Head Twitch 40 mins, individual animal (C57BL/6J mice; 1 mg/kg SC, animals R1-R6): 0 (4×) and 2 (2×)
Head Twitch 50 mins, individual animal (C57BL/6J mice; 1 mg/kg SC, animals R1-R6): 0
Head Twitch 60 mins, individual animal (C57BL/6J mice; 1 mg/kg SC, animals R1-R6): 0
Head Twitch Total, individual animal (C57BL/6J mice; 1 mg/kg SC, animals R1-R6, over 1 h): 1 and 6 and 2 and 3 and 15 and 14
Head Twitch 10 mins, AVG (C57BL/6J mice; 1 mg/kg SC): 2.3
Head Twitch 20 mins, AVG (C57BL/6J mice; 1 mg/kg SC): 3.0
Head Twitch 30 mins, AVG (C57BL/6J mice; 1 mg/kg SC): 0.8
Head Twitch 40 mins, AVG (C57BL/6J mice; 1 mg/kg SC): 0.7
Head Twitch 50 mins, AVG (C57BL/6J mice; 1 mg/kg SC): 0.0
Head Twitch 60 mins, AVG (C57BL/6J mice; 1 mg/kg SC): 0.0
Head Twitch Total, AVG (C57BL/6J mice; 1 mg/kg SC): 6.8
Head Twitch 10 mins, individual animal (C57BL/6J mice; 3 mg/kg SC, animals S1-S6): 1 (2×) and 3 and 2 and 6 and 0
Head Twitch 20 mins, individual animal (C57BL/6J mice; 3 mg/kg SC, animals S1-S6): 2 (2×) and 1 and 0 and 3 and 5
Head Twitch 30 mins, individual animal (C57BL/6J mice; 3 mg/kg SC, animals S1-S6): 2 (2×) and 1 (3×) and 0
Head Twitch 40 mins, individual animal (C57BL/6J mice; 3 mg/kg SC, animals S1-S6): 2 and 0 (4×) and 3
Head Twitch 50 mins, individual animal (C57BL/6J mice; 3 mg/kg SC, animals S1-S6): 1 (2×) and 0 (4×)
Head Twitch 60 mins, individual animal (C57BL/6J mice; 3 mg/kg SC, animals S1-S6): 0 (5×) and 1
Head Twitch Total, individual animal (C57BL/6J mice; 3 mg/kg SC, animals S1-S6, over 1 h): 8 and 5 and 3 and 4 and 14 and 7
Head Twitch 10 mins, AVG (C57BL/6J mice; 3 mg/kg SC): 2.2
Head Twitch 20 mins, AVG (C57BL/6J mice; 3 mg/kg SC): 2.2
Head Twitch 30 mins, AVG (C57BL/6J mice; 3 mg/kg SC): 1.2
Head Twitch 40 mins, AVG (C57BL/6J mice; 3 mg/kg SC): 0.8
Head Twitch 50 mins, AVG (C57BL/6J mice; 3 mg/kg SC): 0.3
Head Twitch 60 mins, AVG (C57BL/6J mice; 3 mg/kg SC): 0.2
Head Twitch Total, AVG (C57BL/6J mice; 3 mg/kg SC): 6.8
Head Twitch 10 mins, individual animal (C57BL/6J mice; 10 mg/kg SC, animals T1-T6): 3 and 1 (2×) and 0 (3×)
Head Twitch 20 mins, individual animal (C57BL/6J mice; 10 mg/kg SC, animals T1-T6): 1 (2×) and 0 (4×)
Head Twitch 30 mins, individual animal (C57BL/6J mice; 10 mg/kg SC, animals T1-T6): 0
Head Twitch 40 mins, individual animal (C57BL/6J mice; 10 mg/kg SC, animals T1-T6): 0 (4×) and 1 (2×)
Head Twitch 50 mins, individual animal (C57BL/6J mice; 10 mg/kg SC, animals T1-T6): 0
Head Twitch 60 mins, individual animal (C57BL/6J mice; 10 mg/kg SC, animals T1-T6): 0 (5×) and 3
Head Twitch Total, individual animal (C57BL/6J mice; 10 mg/kg SC, animals T1-T6, over 1 h): 4 and 2 and 5 and 0 (2×) and 1
Head Twitch 10 mins, AVG (C57BL/6J mice; 10 mg/kg SC): 0.8
Head Twitch 20 mins, AVG (C57BL/6J mice; 10 mg/kg SC): 0.3
Head Twitch 30 mins, AVG (C57BL/6J mice; 10 mg/kg SC): 0.0
Head Twitch 40 mins, AVG (C57BL/6J mice; 10 mg/kg SC): 0.3
Head Twitch 50 mins, AVG (C57BL/6J mice; 10 mg/kg SC): 0.0
Head Twitch 60 mins, AVG (C57BL/6J mice; 10 mg/kg SC): 0.5
Head Twitch Total, AVG (C57BL/6J mice; 10 mg/kg SC): 2.0
head twitch frequency compared to vehicle control (C57BL/6J mice; 0.3-10 mg/kg SC, measured over 1 h): dose dependent increase
